{"source": "patent US10292976B2", "about": "“Anti-malarial agent” (RIKEN, priority 2014, dated 2019)", "key": {"[1]": {"tested_on": "mouse malaria parasites (Plasmodium berghei ANKA strain)", "assay": "Life-prolonging effect after infection with malaria, intraperitoneal", "format": "in vivo", "conditions": "malaria-infected mice, 20 mg/kg intraperitoneal injection"}, "[2]": {"assay": "Cytotoxicity by WST-8 assay, C3H10T1/2", "format": "cell-based, murine", "conditions": "mouse, C3H10T1/2 cells, Table 3, 48 hours", "description": "(§1) Subsequently, the following cell types: HL60 (human promyelocytic leukemia cells), HeLa (human cervical cancer cells), C3H10T1/2 (murine multipotential mesenchymal cells), and HEK293 (human embryonic kidney 293 cells); were treated with metal complexes M-L6 (M=Zn, Fe, Cu, Co, Ni, and Mn) for 48 hours, and then subjected to WST-8 assay to perform evaluation of the cytotoxicity of each kind of metal complex."}, "[3]": {"tested_on": "Plasmodium falciparum: 3D7 strain", "assay": "Antimalarial activity by LDH assay, 3D7 strain", "format": "cell-based", "conditions": "for IC50: Plasmodium falciparum", "description": "Compounds that chelate metal ions in various modes (L1 to L25 in FIG. 1) were selected, and their antimalarial activities were evaluated by LDH assay. Since infection with malaria causes an increase in the LDH activity, the evaluation can be made based on the criteria that the lower the detected LDH activity, the higher the antimalarial activity.\n(§2) The LDH assay was carried out according to the following procedure. That is, 0.5 μL of a solution of each compound in DMSO was added to 100 μL of a culture liquid of erythrocytes (88% RPMI solution; 2% erythrocytes, provided by the Japanese Red Cross Society; and 10% human serum, provided by the Japanese Red Cross Society) infected with falciparum malaria parasites (Plasmodium falciparum: 3D7 strain) (infection rate of erythrocytes, 0.3%). The resulting culture liquid was subjected to culture in a 96-well plate under an atmosphere of 5% CO2, 5% O2, and 90% N2 at 37° C. for three days. Subsequently, the culture liquid was cooled at −80° C. for three hours, and then returned to room temperature. After addition of 150 μL of an LDH enzyme reaction liquid (0.15 mg/mL diaphorase, 37.5 μL/mL of 50% sodium lactate, 0.17 mg/mL NBT, 0.11 mg/mL APAD, 0.16 mL/mL of 1 M Tris-HCl (pH 8), and 8.3 μL/mL of Tween 20), the absorbance at 620 nm was measured.\nBy the same procedure as in Experiment 1, erythrocytes infected with malaria were treated with L6 (about 40 nM) together with iron ion (about 50 μM), copper ion (about 1 μM), or zinc ion (about 10 μM), and the antimalarial activity was evaluated by LDH assay.\n(§3) According to the same procedure as in Experiment 1, the antimalarial activities of metal complexes (M-L6) synthesized by mixing various kinds of metal ions (MSO4: M=Zn, Fe, Cu, Co, Ni, or Mn) with L6 at a molar ratio of 1:1 were evaluated by LDH assay."}, "[4]": {"tested_on": "Dd2 strain (drug-resistant malaria parasites)", "assay": "Antimalarial activity by LDH assay, Dd2 strain", "format": "cell-based, Plasmodium falciparum", "conditions": "Plasmodium falciparum"}, "[5]": {"assay": "Cytotoxicity by WST-8 assay, HL60", "format": "cell-based, human", "conditions": "human, HL60 cells, Table 3, 48 hours", "description": "as §1"}, "[6]": {"tested_on": "mouse malaria parasites (Plasmodium berghei ANKA strain)", "assay": "Life-prolonging effect in malaria-infected mice, oral administration", "format": "in vivo", "conditions": "oral 200 mg/kg on Day 1, Day 3, and Day 6", "description": "(§4) To mice (7 weeks old, Balb/c, male), erythrocytes infected with mouse malaria parasites (Plasmodium berghei ANKA strain) (total number of erythrocytes per mouse, about 10^7; rate of malaria-infected erythrocytes, 0.3%) were intraperitoneally injected. L6 was administered (20 mg/kg, intraperitoneal injection) to each of the thus obtained malaria-infected mice, and the rate of malaria-infected erythrocytes was measured. As a result, on Day 2 to Day 6 after the infection, the infection rate tended to increase in the negative control to which only DMSO was administered. […] The effect of L6 to reduce the infection rate was almost equivalent to the effect of an existing drug, chloroquine (CQ).\nTo malaria-infected mice obtained by the same procedure as in Experiment 4, an aqueous solution of L6 or the zinc complex Zn-L6 was orally administered (at a dose of 200 mg/kg on Day 1, Day 3, and Day 6; N=6), and changes in the number of surviving individuals were investigated. […] That is, it is thought that, by formation of metal complex with zinc ion, L6 can remarkably suppress the toxicity in vivo while sufficiently maintaining the antimalarial activity."}, "[7]": {"tested_on": "human cells (HEK293T and HeLa)", "assay": "Cytotoxicity by WST-8 assay, summary for human cells", "format": "cell-based", "conditions": "48 hours, read-out: concentration at which toxicity is exerted (IC50 value)", "description": "(§5) After treating various kinds of cells (HEK293T: human embryonic kidney cells; HeLa: human cervical cancer cells; NIH3T3: mouse fibroblast cells; tsNRK: rat kidney cells; and 3Y1: rat fibroblasts) with a metal chelator for 48 hours, the cytotoxicities of the cells were evaluated by WST-8 assay."}, "[8]": {"assay": "Cytotoxicity by WST-8 assay, HEK293", "format": "cell-based, human", "conditions": "human, HEK293 cells, Table 3, 48 hours", "description": "as §1"}, "[9]": {"assay": "Cytotoxicity by WST-8 assay, NIH3T3", "format": "cell-based", "conditions": "mouse, NIH3T3 cells, NIH3T3, 48 hours", "description": "as §5"}, "[10]": {"assay": "Cytotoxicity by WST-8 assay, HEK293T", "format": "cell-based", "conditions": "human, HEK293T cells", "description": "as §5"}, "[11]": {"assay": "Cytotoxicity by WST-8 assay, tsNRK", "format": "cell-based", "conditions": "rat, tsNRK cells", "description": "as §5"}, "[12]": {"assay": "Cytotoxicity by WST-8 assay, 3Y1", "format": "cell-based", "conditions": "rat, 3Y1 cells, 3Y1, 48 hours", "description": "as §5"}, "[13]": {"tested_on": "drug-resistant malaria parasite K1 strain", "assay": "Antimalarial activity by LDH assay, K1 strain", "format": "cell-based, Plasmodium falciparum", "conditions": "Plasmodium falciparum", "description": "as §2, §3\nAccording to the same procedure as in Experiment 1, the antimalarial activities of L18 and di-2-pyridylketone 4,4-dimethyl-3-thiosemicarbazone (Sigma) against the malaria parasite 3D7 strain and the drug-resistant malaria parasite K1 strain were evaluated by LDH assay.\nAccording to the same procedure as in Experiment 1, the antimalarial activities of 4′-(4-Pyridyl)-2,2′:6′,2″-terpyridine (Tokyo Chemical Industry) against the malaria parasite 3D7 strain and the drug-resistant malaria parasite K1 strain were evaluated by LDH assay."}, "[14]": {"tested_on": "mouse malaria parasites (Plasmodium berghei ANKA strain)", "assay": "Effect to suppress malaria infection in malaria-infected mice", "format": "in vivo", "conditions": "Balb/c mice, 20 mg/kg intraperitoneal injection, Day 2 to Day 6 after infection", "description": "as §4"}, "[15]": {"assay": "Cytotoxicity by WST-8 assay, HeLa", "format": "cell-based, human", "conditions": "human, HeLa cells", "description": "as §5, §1"}, "[16]": {"tested_on": "chloroquine-resistant strain", "assay": "Antimalarial activity against a chloroquine-resistant strain", "format": "cell-based", "conditions": "result in words"}}, "note": "Like-named read-outs stand apart in the source and are kept apart here."}
{"smiles": "c1ccc(CN(Cc2ccccn2)Cc2ccccn2)nc1", "note": "[L6, Tris(2-pyridylmethyl)amine]", "values": [{"measurement": "life-prolonging effect (number of surviving individuals)", "setting": "[1]", "result": "remarkable life-prolonging effect"}, {"measurement": "IC50 at 48 h", "setting": "[2]", "result": 5.7, "unit": "µM"}, {"measurement": "antimalarial activity (LDH assay, FIG. 2)", "setting": "[3]; 10 nM to 10 μM, result in words", "result": "remarkable antimalarial activity"}, {"measurement": "antimalarial activity of L6 together with added metal ion", "setting": "[3]; L6 about 40 nM with excess zinc ion (about 10 μM)", "result": "suppression of the antimalarial activity was found to some extent"}, {"measurement": "IC50", "setting": "[3]; 3D7, 3D7 strain, values in text, read-out: IC50 value for the antimalarial activity based on the LDH assay", "result": "~0.031", "unit": "µM"}, {"measurement": "IC50", "setting": "[3]; 3D7, read-out: IC50 antimalarial activity, 3D7", "result": 0.084, "unit": "µM"}, {"measurement": "IC50", "setting": "[4]; DD2, read-out: IC50 antimalarial activity against the Dd2 strain", "result": "0.08 to 0.16", "unit": "µM"}, {"measurement": "IC50", "setting": "[4]; DD2, read-out: IC50 antimalarial activity, Dd2", "result": 0.144, "unit": "µM"}, {"measurement": "IC50 at 48 h", "setting": "[5]", "result": 1.8, "unit": "µM"}, {"measurement": "toxicity in vivo", "setting": "[6]", "result": "influence of toxicity appears"}, {"measurement": "IC50", "setting": "[7]", "result": "5.08 to 5.61", "unit": "µM"}, {"measurement": "IC50 at 48 h", "setting": "[8]", "result": 6, "unit": "µM"}, {"measurement": "IC50 at 48 h", "setting": "[9]; 1st measurement", "result": 1.8, "unit": "µM"}, {"measurement": "IC50 at 48 h", "setting": "[9]; 2nd measurement", "result": 1.95, "unit": "µM"}, {"measurement": "IC50 at 48 h", "setting": "[10]; 1st measurement", "result": 5.08, "unit": "µM"}, {"measurement": "IC50 at 48 h", "setting": "[10]; 2nd measurement", "result": 5.31, "unit": "µM"}, {"measurement": "IC50 at 48 h", "setting": "[11]; 1st measurement", "result": 1.88, "unit": "µM"}, {"measurement": "IC50 at 48 h", "setting": "[11]; 2nd measurement", "result": 1.9, "unit": "µM"}, {"measurement": "IC50 at 48 h", "setting": "[12]; 1st measurement", "result": 2.42, "unit": "µM"}, {"measurement": "IC50 at 48 h", "setting": "[12]; 2nd measurement", "result": 3.87, "unit": "µM"}, {"measurement": "IC50", "setting": "[13]; read-out: IC50 antimalarial activity against the K1 strain", "result": "0.08 to 0.16", "unit": "µM"}, {"measurement": "IC50", "setting": "[13]; read-out: IC50 antimalarial activity, K1", "result": 0.082, "unit": "µM"}, {"measurement": "rate of malaria-infected erythrocytes (infection rate)", "setting": "[14]", "result": "infection rate could be remarkably suppressed"}, {"measurement": "IC50 at 48 h", "setting": "[15]; HeLa, 48 hours, 1st measurement (Table 1), read-out: IC50 value, cytotoxicity", "result": 5.61, "unit": "µM"}, {"measurement": "IC50 at 48 h", "setting": "[15]; HeLa, 48 hours, 2nd measurement (Table 1), read-out: IC50 value, cytotoxicity", "result": 5.16, "unit": "µM"}, {"measurement": "IC50 at 48 h", "setting": "[15]; Table 3, 48 hours, WST-8, read-out: IC50 cytotoxicity, HeLa", "result": 5.8, "unit": "µM"}, {"measurement": "antimalarial activity against a chloroquine-resistant strain", "setting": "[16]", "result": "exhibit antimalarial activity also against a chloroquine-resistant strain"}]}
